pIC50: −log10 of the molar value.
Tests used:
[1] = system: Human Breast Cancer Cell Line (MCF-7); experiment: Tumor cell proliferation assay (MTT), MCF-7; assay type: cell-based; conditions: for inhibition at 10 µM: MCF7, concentration of 10^−5 mol/L, preliminary screening, 72 hours, read-out: Inhibition rate % MCF-7; for pIC50: MCF7, secondary screening, 48 hours
Text: (§1) The assay used generally is the blue tetrazolium bromide (MTT) method. […] The amount of formazan can be detected by the microplate reader through the absorption value at 570 nm. The amount of formazan product generated is proportional to the number of living cells in the sample, so the OD value may reflect the number of living cells and the ability of a test drug to inhibit or kill cells. The MTT assay may be used in determining the ability of different compounds of the present invention to inhibit one or more cancer cells proliferation. Similar assays can be designed along the same lines for any cancer cell using techniques well known in the art.
(§2) The assay used generally is the blue tetrazolium bromide (MTT) method. […] Intracellular purple formazan salt crystals can be solved in DMSO and the absorption value at 570 nm is detected by the microplate reader, then the number of living cells can be detected indirectly. So MTT assay may be used to determine the ability of a compound of the present invention to inhibit cell proliferation. Similar assays can be designed along the same lines for any cancer cell using techniques well known in the art.
2.2.9 Human Breast Cancer Cell Line (MCF-7);
The cells of 2.2.8, 2.2.9 cultured in DMEM/High glucose medium containing 12% calf serum in the condition of 37° C., 5% CO2.
(§3) 2.3.1 Cell seeding: Trypsinize the cell by 0.05% trypsin-EDTA and add RPMI 1640 medium (DMEM or 5A) containing 12% calf serum. Count the number, then dilute to 1.67×10^4/ml. Add 180 ul/well to the 96 well plate (3000 cells/well).
(§4) 2.3.2 Culture: cells are incubated for 24 hours at 37° C. under 5% CO2.
(§5) 2.3.3 Preliminary screening: The compounds are firstly diluted to 0.1 mol/L with DMSO, and then diluted to three concentrations of 10^−5 mol/L, 10^−6 mol/L and 10^−7 mol/L. Add 20 ul test compounds to the 96 well plate and incubate for 72 hours. Each group has three parallel wells and all experiments repeat three times. Each inhibition ratio is calculated, then an average value of three times is taken as the measured value. 2.3.4 Staining 2.3.4.1 Attached cell: add 20 ul/well MTT to the 96-well plates; incubate for 4 hours in the incubator. Pour out the culture medium in the well and add 100 ul/well DMSO. Shake the plate for 5 min. 2.3.4.2 Suspension cell: add 20 ul/well MTT to the 96-well plates; incubate for 4 hours in the incubator. Add 50 ul/well 20% SDS and incubate for overnight in the incubator. 2.3.5 Reading the plates: read the absorbance A570-A630 with the Infinite M200 microtiter plate reader. Calculate the inhibition ratio of the test compounds. 2.3.6 Secondary screening: the compounds whose inhibition ratio is greater than 50% at the concentrations of 10^−5 mol/L in the preliminary screening will be picked out for Secondary screening. Dilute these compounds to ten concentrations: 10^−5 mol/L, 0.5×10^−5 mol/L, 10^−6 mol/L, 0.8×10^−6 mol/L, 0.6×10^−6 mol/L, 0.4×10^−6 mol/L, 0.2×10^−6 mol/L, 10^−7 mol/L, 0.8×10^−7 mol/L and 0.4×10^−7 mol/L. Add 20 ul test compound solution to the 96 well plate and incubate for 48 hours. Each group has three parallel wells and all experiments repeat for three times. Read the plates and calculate the inhibition ratio according to the preliminary screening method. 2.3.7 Calculate the Inhibition Ratio of Cell Proliferation and the IC50
(§6) According to the inhibition ratio of cell proliferation at the different concentrations of the compound, inhibition ratio of 50% of the test compound is calculated through the logarithm of the concentration of the compound with the Logit [I] linear regression, and an average value of three times is taken as the measured value of a sample.

[2] = system: Human Leukemia Line (K562); experiment: Tumor cell proliferation assay (MTT), K562; assay type: cell-based; conditions: for inhibition at 10 µM: concentration of 10^−5 mol/L, preliminary screening, 72 hours, read-out: Inhibition rate % K562; for pIC50: secondary screening, 48 hours
Text: as §1, §2
2.2.3 Human Leukemia Line (K562)
The cells of the 2.2.1, 2.2.2, 2.2.3, 2.2.4, 2.2.5 cultured with RPMI 1640 containing 12% calf serum in the condition of 37° C., 5% CO2.
as §3, §4, §5, §6

pIC50 [2]	pIC50 [1]	SMILES	inhibition at 10 µM [1]	inhibition at 10 µM [2]
6.14		Cc1[nH]c2c(c1C(=O)NCC(O)CN1CCCCC1)CCC/C2=C1/C(=O)Nc2ccccc21 (centres unmarked) [I-73, N-(2-hydroxy-3-(piperidin-1-yl)propyl)-2-methyl-7-[1,2-dihydro-2-oxo-3H-indol-(Z)-3-ylidene]-4,5,6,7-tetrahydro-1H-indole-3-carboxamide]	43.4%	94.8%
6.03	5.15	Cc1[nH]c2c(c1C(=O)NCC(O)CN1CCCCC1)CCC/C2=C1/C(=O)Nc2ccc(F)cc21 (centres unmarked) [I-74, N-(2-hydroxy-3-(piperidin-1-yl)propyl)-2-methyl-7-[1,2-dihydro-5-fluoro-2-oxo-3H-indol-(Z)-3-ylidene]-4,5,6,7-tetrahydro-1H-indole-3-carboxamide]	70.7%	95.1%
		Cc1[nH]c2c(c1C(=O)NCCO)CCC/C2=C1/C(=O)Nc2ccccc21 [I-8, N-(2-hydroxyethyl)-2-methyl-7-[1,2-dihydro-2-oxo-3H-indol-(Z)-3-ylidene]-4,5,6,7-tetrahydro-1H-indole-3-carboxamide]	25.2%	39.4%
5.53	5.16	CCN(CC)CCNC(=O)c1c(C)[nH]c2c1CCC/C2=C1/C(=O)Nc2ccccc21 [I-5, N-(2-(diethylamino)ethyl)-2-methyl-7-[1,2-dihydro-2-oxo-3H-indol-(Z)-3-ylidene]-4,5,6,7-tetrahydro-1H-indole-3-carboxamide]	50.5%	93.3%
5.45	5.10	CCN(CC)CCNC(=O)c1c(C)[nH]c2c1CCC/C2=C1/C(=O)Nc2ccc(F)cc21 [I-2, N-(2-(diethylamino)ethyl)-2-methyl-7-[1,2-dihydro-5-fluoro-2-oxo-3H-indol-(Z)-3-ylidene]-4,5,6,7-tetrahydro-1H-indole-3-carboxamide]	55.4%	95.3%

From patent publication US8084621B2, “3-Pyrrolo[b]cyclohexylene-2-dihydroindolinone derivatives and uses thereof” (Jiangsu Simcere Pharmaceutical R&D Co. Ltd., priority 2006, dated 2011)
